Publication PMC5460220, “Dual PI3K and Wnt pathway inhibition is a synergistic combination against triple negative breast cancer” (NPJ Breast Cancer, 2017)
Where two headings read alike, the source gives them in different places.

Tests used:
metastatic TNBCs = system: metastatic TNBCs; parameters: method as in ref 16 = [16]; 16. Dirix, L. Avelumab (MSB0010718C), an anit-PD-L1 antibody, in patients with locally advanced or metastatic breast cancer: a phse Ib JAVELIN solid tumor trial. SABCS Annual. Meeting. Oral. Presentat; conditions: patients with metastatic TNBCs, phase Ib JAVELIN trial; cited from earlier work
TMD-231 lung metastases = test: quantification of lung metastases, Ki67 staining; type: in vivo, NSG mice; conditions: TMD-231 xenograft, PD study lungs; combination p = 0.0196
From the text: The TMD-231 cells used in our PD study have a known propensity to metastasize to the lung.[29] To assess the effect of the combination therapy on the growth of lung metastases, lung tissues from our PD study were stained and analyzed for metastatic burden. […] Lungs were extracted, fixed in 10% formalin, and processed in paraffin. Five-micrometer sections were H&E stained, deparaffinized, blocked, and stained using primary anti-human Ki67 antibody (DAKO, Carpinteria, California). The Aperio whole slide digital imaging system was used for imaging (Leica, Wetzlar, Germany). Using the Aperio ScanScope CS, ×20 images were taken at scan times ranging from 1.5 to 2.25 min. The total nuclear labeling index (Ki67) was generated using the Aperio ImageScope standard positive pixel algorithm. The Image Analysis software was used to calculate the percent of positive pixels (brown staining) in one large cross section from each lung.

[1] = system: TNBC patient-derived xenograft (PDX); test: TNBC PDX survival study; type: in vivo, NSG mice; conditions: n = 10 per group, once-a-day for a maximum of 28 days, buparlisib 30 mg/kg, WNT974 3 mg/kg
porcupine (PORCN) = test: RNA-seq of MDA-MB-231 cells before and after buparlisib treatment; type: cell-based, human; conditions: MDA-MB-231, RNA-seq before and after treatment
Protocol: RNA-sequencing for the buparlisib treated MDA-MB-231 cell line experiment was performed as follows. To enrich for the non-ribosomal RNA transcriptome, RNA samples were first depleted of ribosomal RNA using the Low Input Ribominus Kit (Life Technologies). ERCC spike-in controls (Pool 1) were introduced for all samples (Life Technologies). RNA libraries were constructed using the Ion Total RNA-Seq Kit for AB Library Builder System (Life Technologies) per manufacturer’s instructions. Libraries were barcoded using the IonXpress RNA-Seq Barcode 1–16 Kit (Life Technologies), and libraries were quantified using the Agilent TapeStation 2200 along with the DNA D1K Kit. Libraries were diluted to a concentration of 11 pM prior to templating and emulsion polymerase chain reaction (PCR) using the Ion Template OT2 200 v2 kit along with Ion OneTouch 2 instrument (Life Technologies). Templates were quantified using the IonSphere Quality Control Kit (Life Technologies). Samples were sequenced on an Ion Proton Next-Generation Sequencer using the Ion Proton PI chip and the Ion PI Sequencing 200 v2 kit (Life Technologies). Samples were sequenced using two RNA-seq libraries/samples per chip to an average of 30–40 million reads per sample. Reads were mapped to the human genome (hg19) using the STAR algorithm.[36] Aligned BAM files were then imported into Partek Genomics Suite. […]

phospho-AKT = test: western blot for phospho-AKT in PD study tumors; type: in vivo, NSG mice; conditions: TMD-231 xenograft tumors, 7 days of dosing
Protocol: (§1) To further assess preliminary efficacy and target modulation, a PD experiment was performed. […] Tumors were allowed to grow for 29 days to an average size of ~350 mm^3. […] After only 7 days of treatment, we observed a ~40% decrease in tumor volume with the combination, while tumors actually grew slightly in the face of single agent therapy, again, giving further observations of synergy (Fig. 4a). On the 7th day, the mice had plasma drawn, and then euthanized and the tumor removed. Measurement of buparlisib and WNT974 concentrations in tumor tissue confirmed that these agents were reaching the tumor (Fig. 4b). To assess molecular target modulation, RNA and protein was isolated from each of the tumors in our PD study and biomarker analysis was performed. […] (Supplementary Fig. 3a). […] Target modulation was assessed using qPCR for Axin2 (a marker of WNT974), and western blot for porcupine and phospho-Akt […] (a marker of buparlisib activity). qPCR was performed using Taqman assays (Life Technologies). Protein was isolated after 48 h of treatment in biological triplicates using radioimmunoprecipitation assay buffer and quantified with bicinchoninic acid assay (Thermo Fisher). Protein was run on bis-tris gels (Life Technologies) and transferred to polyvinylidene fluoride membrane. […] Quantification of blots was performed using ImageJ (NIH) and statistical analysis using GraphPad.

[2] = quantification of drug in resected tumors, HPLC-MS/MS; type: in vivo, NSG mice; conditions: NSG, mouse, tumor, 7 days once daily, average with standard deviation; for concentration at 1 h: 1 h post the last dose; for concentration at 7 h: 7 h post the last dose
Protocol: After 7 days of treatment, we observe a ~40% decrease in tumor volume. b Quantification of drug in tumors resected from mice treated in our PD study. Half of the tumors were resected at 1 h post the last dose, and the other half 7 h post the last dose. Using Highperformance liquid chromatography-mass spectrometry (HPLC-MS/MS), buparlisib and WNT974 were quantified as nanograms of drug per gram of tumor tissue (ng/g). Average values with standard deviation are presented. LOQ limit of quantitation c As TMD-231 cells have a known propensity to metastasize to the lung, we assessed the effect of the combination therapy on the growth of lung metastases.

[3] = system: phosphorylated-AKT (p-AKT Ser 473); test: western blot for p-AKT in TNBC cell lines; type: cell-based, human; conditions: MDA-MB-231, HCC70 and HCC1143; 48 h treatment
Protocol: (§2) To further confirm the induction of porcupine after buparlisib treatment, but at the protein level, we performed western blotting for porcupine and p-AKT before and after treatment with buparlisib.
(§3) Target modulation was assessed using qPCR for Axin2 (a marker of WNT974), and western blot for porcupine and phospho-Akt Ser 473 (a marker of buparlisib activity). qPCR was performed using Taqman assays (Life Technologies). Protein was isolated after 48 h of treatment in biological triplicates using radioimmunoprecipitation assay buffer and quantified with bicinchoninic acid assay (Thermo Fisher). Protein was run on bis-tris gels (Life Technologies) and transferred to polyvinylidene fluoride membrane. Primary pAKT-Ser 473 antibody (Cell Signaling Technology, Beverly, Massachusetts), β-actin (Cell Signaling Technology), and PORCN (Abcam, Cambridge, England) was incubated overnight with subsequent 1-hour incubation with horseradish peroxidase-conjugate secondary antibody. Staining was performed using a chemiluminescent substrate (ThermoFisher). Imaging was performed using an LAS-4000 Luminescent Image Analyzer (Fujifilm, Tokyo, Japan). Quantification of blots was performed using ImageJ (NIH) and statistical analysis using GraphPad.

[4] = known; cited from earlier work
[5] = system: porcupine (PORCN) protein; test: western blot for porcupine in TNBC cell lines; type: cell-based, human
Protocol: as §2, §3

advanced TNBC = system: advanced TNBC; parameters: method as in ref 17 = [17]; 17. Nanda, R. A phase Ib study of pembrolizumab (MK-3475) in patients with advanced triple- negative breast cancer. SABCS Annual. Meeting. Oral. Presentation . (2014).; conditions: phase Ib trial; cited from earlier work
AXIN2 RNA = test: qPCR for AXIN2 RNA in PD study tumors; type: in vivo, NSG mice; conditions: TMD-231 xenograft tumors, 7 days of dosing
Protocol: as §1

tumor growth = system: tumor growth; parameters: method as in PMID 24277854; conditions: recently published data; cited from earlier work
porcupine = system: porcupine; parameters: method as in PMID 24277854; conditions: recently published data; cited from earlier work
[6] = 30 mg/kg, read-out: Buparlisib in tumor tissue
[7] = 3 mg/kg, read-out: WNT974 in tumor tissue

avelumab: an anti-PD-L1 antibody
overall response rate (metastatic TNBCs): 8.6%

Nc1cc(C(F)(F)F)c(-c2cc(N3CCOCC3)nc(N3CCOCC3)n2)cn1 [buparlisib]
lung metastases compared with the control group (TMD-231 lung metastases): small but non-significant decreases
mice survived to the end of the study [1]: 40%
PORCN over-expression after PI3K inhibition (porcupine (PORCN)): ~ 8 fold
inhibition of phospho-AKT in tumors (phospho-AKT): observed
concentration at 1 h [2, 6]: 3590 ± 898 ng/g
concentration at 7 h [2, 6]: 2960 ± 683 ng/g
phospho-AKT after treatment [3]: potent inhibition
toxicity / most common side effect in humans [4]: depression, anxiety, pneumonitis, and liver toxicity
PORCN protein, quantified western blot ([5]; HCC70, 10 x IC50 buparlisib, p-value 0.0084): significant increase
PORCN protein, quantified western blot ([5]; HCC1143, IC50 buparlisib, p-value 0.013): significant increases
PORCN protein, quantified western blot ([5]; MD-MB-231, IC50 buparlisib, p-value 0.0072): significant increases

pembrolizumab: immune checkpoint therapy tested in a phase Ib trial in advanced TNBC
overall response rate (advanced TNBC): 18.5%

Cc1cc(-c2ncc(CC(=O)Nc3ccc(-c4cnccn4)cn3)cc2C)ccn1 [WNT974]
lung metastases compared with the control group (TMD-231 lung metastases): small but non-significant decreases
mice survived to the end of the study [1]: 0%
AXIN2 RNA levels in tumors (AXIN2 RNA): decreased
inhibition of phospho-AKT in tumors (phospho-AKT): not
concentration at 1 h [2, 7]: 19.2 ± 1.11 ng/g
concentration at 7 h [2, 7]: 8.34 ± 0.33 ng/g
inhibition of tumor growth in vivo (tumor growth): significant inhibition
toxicity / most common side effect in humans [4]: dysgeusia
inhibition of its target (porcupine) (porcupine): potent inhibition
